Laboratory results: US20220160716A1 (SORBONNE UNIVERSITE, priority 2019, published 2022)

Experiments:
CDK9/T = biological target: T1, CDK9/T (Homo sapiens, UniProt P50750); assay: Protein kinase catalytic activity assay, CDK9/cyclin T; assay type: biochemical; conditions: activator cyclin T; read-out: IC50 of protein kinases, CDK9/T
T1 construct: made in house

CK1 = assay: Protein kinase catalytic activity assay, CK1; assay type: biochemical; conditions: read-out: IC50 of protein kinases, CK1
CLK1 = biological target: T2, CLK1 (Homo sapiens, UniProt P49759); assay: Protein kinase catalytic activity assay, CLK1; assay type: biochemical; conditions: read-out: IC50 of protein kinases, CLK1
T2 construct: made in house
T2 sequence (P49759 whole entry): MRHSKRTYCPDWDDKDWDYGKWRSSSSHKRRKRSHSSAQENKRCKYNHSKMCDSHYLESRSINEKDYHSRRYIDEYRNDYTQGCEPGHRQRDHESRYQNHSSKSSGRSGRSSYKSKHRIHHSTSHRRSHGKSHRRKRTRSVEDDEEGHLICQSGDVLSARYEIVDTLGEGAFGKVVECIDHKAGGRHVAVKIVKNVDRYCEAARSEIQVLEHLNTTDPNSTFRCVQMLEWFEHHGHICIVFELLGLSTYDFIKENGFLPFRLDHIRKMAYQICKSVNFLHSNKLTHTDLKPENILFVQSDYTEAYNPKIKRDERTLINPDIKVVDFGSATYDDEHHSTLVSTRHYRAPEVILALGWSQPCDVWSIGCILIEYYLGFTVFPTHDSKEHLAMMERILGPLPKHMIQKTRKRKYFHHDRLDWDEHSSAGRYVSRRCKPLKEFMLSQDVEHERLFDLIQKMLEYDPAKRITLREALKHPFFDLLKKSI

DYRK1A = biological target: T3, DYRK1A (Homo sapiens, UniProt Q13627); assay: Protein kinase catalytic activity assay, DYRK1A; assay type: biochemical; conditions: read-out: IC50 of protein kinases, DYRK1A
T3 construct: made in house

GSK3 = GSK3 (Homo sapiens, UniProt P49841); assay: Protein kinase catalytic activity assay, GSK3; assay type: biochemical; conditions: read-out: IC50 of protein kinases, GSK3
Sequence of GSK3 (P49841 whole entry): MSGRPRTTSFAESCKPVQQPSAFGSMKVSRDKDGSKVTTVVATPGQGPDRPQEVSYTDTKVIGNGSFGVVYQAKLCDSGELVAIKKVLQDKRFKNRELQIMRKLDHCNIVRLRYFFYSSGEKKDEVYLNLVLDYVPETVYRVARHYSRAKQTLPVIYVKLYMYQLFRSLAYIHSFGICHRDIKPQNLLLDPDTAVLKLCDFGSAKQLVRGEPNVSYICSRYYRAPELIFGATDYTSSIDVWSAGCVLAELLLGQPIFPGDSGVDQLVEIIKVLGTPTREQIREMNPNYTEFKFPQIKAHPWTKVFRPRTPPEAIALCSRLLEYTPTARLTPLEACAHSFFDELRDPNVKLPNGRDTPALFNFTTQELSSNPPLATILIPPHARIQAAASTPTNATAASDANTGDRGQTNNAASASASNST

CDK2/A = biological target: T4, CDK2/A (Homo sapiens, UniProt P24941); assay: Protein kinase catalytic activity assay, CDK2/cyclin A; assay type: biochemical; conditions: activator cyclin A; read-out: IC50 of protein kinases, CDK2/A
T4 construct: made in house

CDK5/p25 = biological target: T5, CDK5/p25 (Homo sapiens, UniProt Q00535); assay type: biochemical; conditions: activator p25; read-out: IC50 of protein kinases, CDK5/p25
T5 construct: made in house
T5 sequence (Q00535 whole entry, species assumed): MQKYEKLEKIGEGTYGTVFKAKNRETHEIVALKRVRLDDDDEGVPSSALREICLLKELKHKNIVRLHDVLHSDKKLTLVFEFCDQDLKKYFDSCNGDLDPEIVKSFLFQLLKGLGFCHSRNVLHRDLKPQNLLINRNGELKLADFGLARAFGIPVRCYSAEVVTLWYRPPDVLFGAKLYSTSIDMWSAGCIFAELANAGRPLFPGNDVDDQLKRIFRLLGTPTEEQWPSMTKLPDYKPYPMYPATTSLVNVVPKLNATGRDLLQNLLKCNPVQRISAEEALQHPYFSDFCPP
T5 sequence (Q15078 99-307 partner limits assumed, species assumed): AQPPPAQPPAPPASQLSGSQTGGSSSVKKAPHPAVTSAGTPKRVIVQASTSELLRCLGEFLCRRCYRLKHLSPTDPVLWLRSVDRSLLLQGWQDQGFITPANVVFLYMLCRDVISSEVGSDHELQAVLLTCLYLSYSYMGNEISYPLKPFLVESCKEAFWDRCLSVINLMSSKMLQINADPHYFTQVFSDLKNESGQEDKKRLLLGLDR

ABCB4-I541F = ABCB4-I541F (Homo sapiens, UniProt P21439, I541F); assay: Maturation of ABCB4-I541F by immunoblot in HEK cells; assay type: cell-based; set-up: The subcloning of wild type (WT) ABCB4, isoform A (NM_000443.3), into pcDNA3 vector has been described; expressed in transfected cells; host or cells: HEK-293 (immunoblot, PC secretion); conditions: HEK cells, 100 μM, 16 hours, immunoblot
Sequence of ABCB4-I541F (P21439 1-1279 isoform P21439-2 I541F): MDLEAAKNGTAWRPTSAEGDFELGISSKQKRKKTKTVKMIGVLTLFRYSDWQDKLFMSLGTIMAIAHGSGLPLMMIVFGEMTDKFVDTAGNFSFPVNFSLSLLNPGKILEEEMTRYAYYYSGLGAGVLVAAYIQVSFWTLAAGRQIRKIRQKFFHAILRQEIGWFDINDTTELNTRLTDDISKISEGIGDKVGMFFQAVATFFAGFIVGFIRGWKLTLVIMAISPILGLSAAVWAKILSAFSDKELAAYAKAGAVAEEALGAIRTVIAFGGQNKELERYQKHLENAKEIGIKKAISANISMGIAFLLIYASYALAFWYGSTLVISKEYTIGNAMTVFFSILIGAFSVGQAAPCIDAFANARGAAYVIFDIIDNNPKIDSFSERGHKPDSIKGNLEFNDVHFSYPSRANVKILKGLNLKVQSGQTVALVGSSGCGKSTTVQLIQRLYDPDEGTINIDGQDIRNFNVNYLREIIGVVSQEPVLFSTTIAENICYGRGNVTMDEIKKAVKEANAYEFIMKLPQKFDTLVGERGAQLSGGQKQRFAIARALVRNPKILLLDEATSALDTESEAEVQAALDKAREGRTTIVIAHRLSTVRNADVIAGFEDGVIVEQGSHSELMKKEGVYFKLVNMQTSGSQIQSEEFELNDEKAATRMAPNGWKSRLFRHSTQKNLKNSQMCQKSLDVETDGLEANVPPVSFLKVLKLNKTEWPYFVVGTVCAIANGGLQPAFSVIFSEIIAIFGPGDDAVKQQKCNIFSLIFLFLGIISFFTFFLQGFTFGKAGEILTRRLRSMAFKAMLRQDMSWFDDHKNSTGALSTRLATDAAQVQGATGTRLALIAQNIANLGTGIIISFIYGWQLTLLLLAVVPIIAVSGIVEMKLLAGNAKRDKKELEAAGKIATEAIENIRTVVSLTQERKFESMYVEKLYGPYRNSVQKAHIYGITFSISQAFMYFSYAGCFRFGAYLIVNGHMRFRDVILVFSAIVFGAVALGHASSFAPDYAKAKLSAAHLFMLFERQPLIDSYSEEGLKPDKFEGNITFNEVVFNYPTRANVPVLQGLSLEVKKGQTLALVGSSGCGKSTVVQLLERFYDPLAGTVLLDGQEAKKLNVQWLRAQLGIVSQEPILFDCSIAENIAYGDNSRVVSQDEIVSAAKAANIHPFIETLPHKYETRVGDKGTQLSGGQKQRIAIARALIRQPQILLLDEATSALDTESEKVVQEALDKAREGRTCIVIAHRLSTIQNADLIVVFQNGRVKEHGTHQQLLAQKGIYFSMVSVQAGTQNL
Procedure: (§1) Cyclosporin A (CsA) was from Santa Cruz Biotechnologies (Dallas, Tex.). […] Each compound was solubilized in dimethylsulfoxide (DMSO) as 1000× concentrated stock solutions in order to treat cells with 5 μM to 100 μM final concentrations, using DMSO as control vehicle at the same dilution (0.1% DMSO for all conditions). The cells were treated 24 hours post-transfection with these drugs during 16 hours, except for the viability assays for which cells were treated during three days. After drug treatment, cells were used for immunoanalyses, cell viability assays or PC secretion assays.
Western blots and indirect immunofluorescence were performed as previously described (2, 12). […] Signals were detected with ECL prime western blotting detection reagent (GE Healthcare, Velizy-Villacoublay, France) and quantified in the linear range of detection using ImageJ 1.50i software (U.S. National Institutes of Health, Bethesda, Md.).

HEK cells = assay: Cell viability MTT assay in HEK cells; conditions: three days
Procedure: as §1
Cell viability was assessed by the conversion of MTT (3-[4,5-dimethylthiazol-2-yl]-2,5 diphenyl tetrazolium bromide) into formazan crystals by living cells, as described (14). […] These conditions were optimized in order to maintain the absorbance at 540 nm of the blanks below 0.1 OD unit (negative controls) and the absorbance at 540 nm for untreated cells between 1.0 and 1.3 OD units (positive controls). Then culture media were gently washed out, cells were lysed in 100 μL of pure DMSO and absorbance at 540 nm was measured using a multiplate cytofluorimeter SpectraFluor from Tecan (Männedorf, Switzerland). Cell viability was calculated for each triplicate after background subtraction and expressed as percentage of the mean for cells treated with vehicle only.

T1 sequence (P50750 whole entry, species assumed): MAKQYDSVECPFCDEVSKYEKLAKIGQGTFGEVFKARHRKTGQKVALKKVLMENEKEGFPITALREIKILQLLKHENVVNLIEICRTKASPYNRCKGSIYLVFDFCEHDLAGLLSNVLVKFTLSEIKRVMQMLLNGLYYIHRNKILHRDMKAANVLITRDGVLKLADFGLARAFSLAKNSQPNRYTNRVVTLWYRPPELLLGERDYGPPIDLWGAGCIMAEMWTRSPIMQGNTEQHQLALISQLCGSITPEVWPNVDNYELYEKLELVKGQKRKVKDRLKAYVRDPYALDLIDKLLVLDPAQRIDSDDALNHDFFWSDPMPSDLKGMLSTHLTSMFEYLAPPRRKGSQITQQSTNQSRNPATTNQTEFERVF
T1 sequence (O60563 whole entry partner, species assumed): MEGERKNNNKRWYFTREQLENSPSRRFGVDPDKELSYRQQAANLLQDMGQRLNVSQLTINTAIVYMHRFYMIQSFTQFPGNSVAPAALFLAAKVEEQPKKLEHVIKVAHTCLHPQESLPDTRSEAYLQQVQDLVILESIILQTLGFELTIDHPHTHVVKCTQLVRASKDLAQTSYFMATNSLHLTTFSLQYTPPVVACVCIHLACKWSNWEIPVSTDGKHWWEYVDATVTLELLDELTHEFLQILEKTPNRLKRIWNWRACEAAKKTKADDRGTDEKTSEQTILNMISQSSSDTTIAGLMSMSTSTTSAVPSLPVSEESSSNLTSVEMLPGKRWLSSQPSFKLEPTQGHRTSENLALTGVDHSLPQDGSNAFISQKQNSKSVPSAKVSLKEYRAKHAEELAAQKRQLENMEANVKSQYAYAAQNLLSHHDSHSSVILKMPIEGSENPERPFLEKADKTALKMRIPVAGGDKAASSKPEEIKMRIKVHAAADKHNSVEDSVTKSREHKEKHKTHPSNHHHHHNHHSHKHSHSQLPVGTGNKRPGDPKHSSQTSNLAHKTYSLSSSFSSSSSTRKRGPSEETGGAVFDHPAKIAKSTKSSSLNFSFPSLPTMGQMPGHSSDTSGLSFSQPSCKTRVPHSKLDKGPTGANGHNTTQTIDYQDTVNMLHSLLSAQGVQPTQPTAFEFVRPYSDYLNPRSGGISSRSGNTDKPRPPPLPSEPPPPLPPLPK

Row | SMILES | IC50 (CDK9/T) | IC50 (CK1) | IC50 (CLK1) | IC50 (DYRK1A) | IC50 (GSK3) | IC50 (CDK2/A) | IC50 (CDK5/p25) | maturation (mature form) of ABCB4-I541F (ABCB4-I541F) | cell viability (HEK cells; 25 μM, % of vehicle-treated cells) | cytotoxicity (HEK cells; increasing concentrations)
1 | CC[C@@H](Nc1nc(NCc2ccccc2)c2ncn(C(C)C)c2n1)C(=O)O [M3, reference compound] | > 33 µM | > 33 µM | > 33 µM | 19 µM | > 10 µM | – | – | – | – | –
2 | CC(C)n1cnc2c(NCc3ccccc3)nc(N[C@@H](CO)C(=O)O)nc21 [MRT2-164] | 17 µM | 28 µM | > 33 µM | > 10 µM | > 10 µM | – | – | – | – | –
3 | CC[C@@H](Nc1nc(NCc2cccc(C(F)(F)F)c2)c2ncn(C3CCCC3)c2n1)C(=O)O [MRT2-239] | 20 µM | 4 µM | 9 µM | 21 µM | > 10 µM | 8 µM | 11 µM | significantly increase the expression of a mature form of ABCB4-I541F | – | –
4 | CC[C@@H](Nc1nc(NCc2ccc(F)c(F)c2)c2ncn(C3CCCC3)c2n1)C(=O)O [MRT2-241] | 8 µM | 11 µM | 13 µM | 20 µM | > 10 µM | 5.1 µM | 17 µM | significantly increase the expression of a mature form of ABCB4-I541F | – | –
5 | CC[C@@H](Nc1nc(NCc2ccccc2)c2ncn(C3CCCC3)c2n1)C(=O)O [MRT2-245] | 28 µM | 17 µM | 13 µM | 21 µM | > 10 µM | 6.3 µM | 15 µM | significantly increase the expression of a mature form of ABCB4-I541F | – | –
6 | CC[C@@H](Nc1nc(NCc2cccc(C(F)(F)F)c2)c2ncn(C(C)C)c2n1)C(=O)O [MRT2-249] | > 33 µM | 5 µM | 23 µM | 9 µM | > 10 µM | 9 µM | 27 µM | significantly increase the expression of a mature form of ABCB4-I541F | – | –
7 | CC[C@H](CO)Nc1nc(NCc2ccccc2)c2ncn(C(C)C)c2n1 [Roscovitine, (R)-roscovitine] | – | – | – | – | – | – | – | – | less than 60% | important dose-dependent cytotoxicity
